Measurements reported in a melting point compilation (Tetko et al.; mined from patent text by program, amines drawn as free bases though some values may be those of a salt).

melting point [°C]	SMILES
207	COc1cc(-n2nc(C(F)(F)F)cc2-c2ccc(-c3ccco3)cc2)ccc1S(N)(=O)=O
135 to 136	CCOC(=O)c1oc2cc(-c3ccc(CO)cc3)ccc2c1C
187 to 190	O=C(NCc1ccc(F)cc1-n1cncn1)c1nc2n(c(=O)c1OCc1ccccc1)CCN2c1ccccc1
248 to 250	O=C1c2ccccc2C(=O)N1Cc1noc(-c2ncn3c2[C@@H]2CCCN2C(=O)c2sccc2-3)n1
274 to 276	COc1ccc(OC)c2[nH]c(-c3ccc(Cl)cc3)nc12
219 to 220	O=C(NC1c2sc([N+](=O)[O-])cc2OCC1O)c1ccc(C(F)(F)F)cc1 (centres undefined)
254 to 255	Cc1nnc2cc(-c3ccccc3)c3cc(Cl)ccc3n12
268 to 269	O=C(O)C1=Cc2cc(C(=O)c3ccc(Cl)cc3)ccc2OC1C(F)(F)F (centres undefined)
124 to 127	CNC(=O)N1CCC(Oc2cccc(C(F)(F)F)c2)(c2ccccc2)CC1
178 to 181	CN1Cc2ccccc2C(=O)c2c(CC(=O)O)cccc21
118 to 123	Cc1c(-c2ccc(O)cc2)n(Cc2ccc(C#CCN3CCCCC3)cc2)c2ccc(O)cc12
124 to 126	CC(C(=O)N(C)C)n1c(-c2ccc(Cl)cc2)nc2cccnc21 (centres undefined)
122	O=C(c1ccccc1)c1cc(-c2ccncc2)c(N2CCOCC2)s1
195 to 197	CCOC(=O)c1ccccc1-n1c(CCl)nc2ccc(Cl)cc2c1=O
165 to 166	Cc1oc(-c2ccccc2)nc1/C=C/c1ccc(/C=C/CO)cc1
173 to 175	COc1cccc(NC(=NC#N)NC(NC(=O)c2ccc(Cl)cc2)C(C)(C)C)c1 (centres undefined)
158 to 161	COc1ccc([C@@H]2C=C[C@H](C(=O)O)n3c(=O)n(CCCl)c(=O)n32)cc1 (relative stereo)
202 to 204	c1ccc(-c2cccc3c2CCN(Cc2c[nH]c4ncccc24)C3)cc1

melting point [°C]	SMILES
271 to 272	CC(=O)Nc1ccc(C=Cc2cc(=O)cc(-c3ccccc3)o2)cc1
247 to 249	O=C1CCC(N2C(=O)c3cccc(OCc4cc5ccccc5s4)c3C2=O)C(=O)N1 (centres undefined)
130	CCC(C(N)=O)N(Cc1ccc2nc(NCCCN3CCOCC3)n(Cc3nc(C)ccc3OC)c2c1)c1cc(C)cc(C)c1 (centres undefined)
216 to 217	C(=Cc1ccc(-c2noc3ccccc23)cc1)c1ccc(-c2nc(-c3ccccc3)no2)cc1
255 to 257	CC1(C)Oc2ccc(C#N)cc2[C@@H](n2c(=O)[nH]c3ccccc32)[C@@H]1O (relative stereo)
210	CCCCc1cc2c(Nc3ccc4[nH]ccc4c3)c(C#N)cnc2s1
245	COc1cccc2c1C(=O)c1nc(-c3ccccc3)sc1C2=O
62 to 67	CC(=O)SCC(Cc1ccccc1)C(=O)Nc1cc(C(=O)O)cc(C(F)(F)F)c1 (centres undefined)
180 to 181	Fc1cc(CC2(Cc3ccncc3)c3ccccc3Oc3ccccc32)ccn1
152 to 155	Nc1ccc(-c2nc3ccc(F)cc3s2)cc1
187	Cc1c(C(=O)O)cnn1-c1ccc(F)c(Cl)c1
297 to 299	COc1ccc(CSc2cccc3c2C(=O)c2cccc(SCc4ccc(OC)cc4)c2C3=O)cc1
137	CCCCOc1ccc(S(=O)(=O)C2(C(=O)O)CCN(Cc3ccc(C)cc3)CC2)cc1
218 to 220	Brc1ccc(-c2cc(-c3ccc(Br)cc3)on2)cc1
> 260	COc1cc(OC)c(-c2c(C)noc2C)cc1C=CC(=O)c1ccc(C(=O)O)cc1
208	CC(C)(C)Sc1c(CC(C)(C)C(=O)O)n(Cc2ccc(Cl)cc2)c2ccc(OCc3ccc4ccccc4n3)cc12
154 to 155	COc1ccc(-n2nc(C)c(CC(=O)O)c2C)cc1
153 to 154	COCCOc1ccc(CCCOC(=O)NS(N)(=O)=O)c(Oc2ncc(Cl)cc2Cl)c1

The next lines start with the compound.

SMILES	melting point [°C]
CCOP(=O)(OCC)C(c1ccccc1)N(CCCl)C(N)=O (centres undefined)	82
CCCc1c(OCCCCCOc2ccc3ccc(OCC(=O)O)cc3c2C(C)=O)ccc(C(C)=O)c1O	103 to 106
CN1C(=O)CN=C(c2ccccc2)c2cc(CN)ccc21	201
O=C(O)CCC(=O)OC1CCCN(C(=O)Cn2c(=O)sc3ccc(Cl)cc32)C1 (centres undefined)	131 to 133
CCCCCCCCCCCCCCOc1ccc2c(C)cc(=O)oc2c1	61 to 62
CCCCCCc1c(Cl)nc(N=CN(C)C)nc1Cl	59 to 60
COCOc1ccc(O)c(CC#N)c1	68 to 69
N#Cc1c(Cc2ccccc2)nn(C2CCCC2)c1NC(=O)c1ccncc1	189 to 191
CCOc1cc(C2(C)CNC(=O)O2)ccc1OC (centres undefined)	85
Brc1cccc(-c2csc(Br)n2)c1	88 to 90
COCCOc1cc(NC(=O)OC(C)(C)C)c([N+](=O)[O-])cc1C#Cc1ccccc1	118 to 119
CCCCc1nn2ccccc2c1C(=O)c1ccccc1C#N	116
CC#CCOc1nsc(-c2ccccc2)n1	70.3
NC(=O)Nc1ccc2c(=O)n(CCCCN3CC=C(c4ccccc4)CC3)c(=O)[nH]c2c1	260
COc1cc(C)cc(OC)c1NC1C2CC3CC(C2)CC1C3 (centres undefined)	100
CC(=O)SCC(C)C(=O)N(CC(=O)O)C1Cc2ccccc2C1 (centres undefined)	81 to 83
OCc1cc(I)cc(I)c1I	156 to 159
CC(=O)N(C)c1cccc(-c2ccnc3c(Cl)cnn23)c1	163 to 165
Cc1cc(C=O)ccc1C(=O)O	196 to 198
CCCCc1cc2cc([N+](=O)[O-])ccc2n1C	77
CCON=C(C)c1cccnc1	160 to 162
CNC(=O)C(Cc1ccc(OC)cc1)NC(=O)CC(S)C(CC(C)C)C(N)=O (centres undefined)	221 to 225
CCOC(=O)CNC(=O)CCC(=O)OC	61 to 62

SMILES	melting point [°C]
O=C(C=Cc1ccccc1)c1c(Cl)cccc1Cl	98.2 to 99.2
COc1cc(NCC(O)CO)c([N+](=O)[O-])cc1O (centres undefined)	180
CCOCCc1c(O)n2c3c(=O)n(C)c(=O)n(C)c3nc2n(Cc2ccccc2)c1=O	156 to 158
CC(=O)OC1CSC(OC(=N)C(Cl)(Cl)Cl)C(OC(C)=O)C1OC(C)=O (centres undefined)	110
Cc1c(C)c2c(c(C)c1NC(=O)CC(C)(C)C)C(c1ccc(C(C)C)cc1)CO2 (centres undefined)	171 to 173
Nc1ccc2c(c1)S(=O)(=O)N(CCCCN1CCN(c3ncccn3)CC1)C2=O	150 to 151
CN1CCC(O)c2cccc(CSc3nc4ccccc4[nH]3)c21 (centres undefined)	144 to 145
CCC(=O)NC(=O)c1cc([N+](=O)[O-])cnc1C	171 to 173
CCOC(=O)CC(=O)Nc1ccc(F)cc1F	66 to 68
CC(=O)OC1Cc2ccc([N+](=O)[O-])cc2C1 (centres undefined)	84 to 85
C=CCOC(=O)c1ccc(OC(=O)C2CC3=C(C2)C(C)(C)CCC3(C)C)cc1	48 to 50
CC(C)N1CCN(c2ccc(C(=O)NC3(C(=O)NCC#N)CCCCC3)cc2)CC1	218 to 220
Cc1nnc(NCCCC(C)N2CCNCC2)c2cc3ccccn3c12 (centres undefined)	110 to 111
CNC(=S)NCCSCc1cnccn1	99.5 to 100
O=C(O)CCc1cc(Br)c2c(c1)CCO2	117 to 118
Nc1ccc(F)c(N2C(=O)C3=C(CCCC3)C2=O)c1	134 to 136
CC(C)(C)NCC(O)COc1ccccc1C1=NNC(=O)CC1 (centres undefined)	138 to 141
N#CC1(SCc2ccccc2)C2CC3CC(C2)CC1C3 (centres undefined)	73 to 75
CC(=O)OC1CSC(Oc2cccc(-c3ccc(C)cn3)c2)C(OC(C)=O)C1OC(C)=O (centres undefined)	140
CNC(=C[N+](=O)[O-])NCC(O)COc1cccc(CN2CCCCC2)c1 (centres undefined)	45 to 50
Cc1ccn2c(=Nc3ccncc3)snc2c1	144 to 145
CC(C)(C)NC(=O)c1nn(-c2c(F)cc(F)cc2F)c2c1C1CCC2C1 (centres undefined)	142 to 146
CCCN1CCc2[nH]c3ccc4scc(C)c4c3c2C1	169

SMILES	melting point [°C]
Cc1nc(NCCCO)c([N+](=O)[O-])c(N2CCc3ccccc3CC2)n1	104 to 108
CC(=O)c1ccccc1NC(=O)C(Cl)(Cl)Cl	113
CCCc1nn(C)c2c(=O)[nH]c(-c3cc(C(=O)CBr)ccc3OCC)nc12	159 to 160
O=C1NCC(C(F)(F)F)C(=O)N1Cc1ccccc1 (centres undefined)	129 to 130
CC(=O)CC(=O)N[C@H](CF)[C@H](O)c1ccc(S(C)(=O)=O)cc1	139 to 141
CC(C)c1cc2c(c3c1C(=O)NS3(=O)=O)OCO2	226 to 228
O=C(N[C@@H](Cc1ccccc1)C(=O)Nc1nncs1)OCc1ccccc1	78 to 83
CN1C2CC(OC(=O)Cc3ccccc3)CC1C(O)C2O (centres undefined)	120 to 122
c1cncc(-c2cncnc2)c1	101 to 103
N#CC1=C(Nc2ccccc2N)CSC1	163
OC1(c2cn(-c3ccc(Br)cc3)nn2)CN2CCC1CC2 (centres undefined)	214
CCOC(=O)c1[nH]c(C)c(C)c1CC	95 to 97
O=C(c1ccc(C2CCCCC2)cc1)[C@H]1C[C@H]1C(=O)O (relative stereo)	162 to 163
CCC1CCC(=O)C=C1c1ccc(OCC(=O)O)cc1Cl (centres undefined)	138 to 140
C#CCNC(=C[N+](=O)[O-])SC	131 to 132
CS(=O)(=O)c1ccc(CCl)cc1	102
CCCCCCCCCCCCOc1ccc(C(=O)c2ccc(Cl)cc2)c(O)c1	61 to 63
Cc1nc(C)c(Cl)c(NCc2nccc(SCCCCSCc3ccncc3)c2C)n1	104 to 106
CCCCCCCCCOP(=O)(CNC(=O)Nc1c(C(C)C)cccc1C(C)C)OCC (centres undefined)	66 to 70
O=CN1CCC23CC(=O)CCC2C1Cc1cccc(O)c13 (centres undefined)	260 to 262
OC(CCNC1=NCCCN1)c1ccccc1 (centres undefined)	130 to 135
O=Cc1c2n(c3cc(Br)ccc13)CCNCC2	186 to 188
